In patent publication US20240325544A1, “CATIONIC LIPID FOR COVALENT MODIFICATION OF PEPTIDES” (PharmalN Corporation, priority 2023, published 2024):
Bridge positions count the residues as written; N and C are the ends. Square brackets hold non-standard residues; d marks the D form. Ends that are not written are not given here. * marks the point of attachment. Palmitoyl = CCCCCCCCCCCCCCCC(=O)*; Dap = NC[C@H](N)C(=O)O; AEEA = NCCOCCOCC(=O)O

Columns and labels:
MC38 colon cancer cells = experiment: Subcutaneous mouse model of colon cancer using MC38 cells (FIG. 12); assay type: in vivo, mice; settings: combination with anti-tigit Ab 5 mg/kg IP twice a week, 2 cycles
Procedure: FIGS. 12A-12B. […] Error bars represent standard error of the mean. FIG. 12A) A diagram of the dose schedule for administration of immune checkpoint inhibitor (anti-tigit Ab) and SEQ ID NO: 31. FIG. 12 B) Tumor growth kinetics of 6-week-old male C57BL/6J mice (n=8-9 per group) that were subcutaneously inoculated with MC38 colon cancer cells (1,000,000 cells/mouse) in right flank. Starting from Day 4 post-inoculation, anti-tigit Ab was administered intraperitoneally at 5 mg/kg twice a week for 2 cycles; SEQ ID NO: 31 was administered subcutaneously at a bolus dose of 0.3 mg/kg (0.1 μmol/kg) once daily for 5 days (5 days on, 2 days off) for 3 cycles; or a combination of anti-tigit Ab (5 mg/kg IP twice a week; 2 cycles) and SEQ ID NO: 31 (0.3 mg/kg SC once a day for 5 days on and 2 days off; 3 cycles). The control group, which received only buffer, was dosed in the same manner as SEQ ID NO: 31 to establish the baseline tumor growth kinetics. […]
Animal care and treatment: Male C57BL/6J mice (6 weeks-old) were purchased from Kyudo (Saga, Japan) and maintained under a 12-hour light/12-hour dark cycle with free access to water and standard mouse diet (MF diet; Oriental Yeast Co., Ltd, Tokyo Japan). […] Tumor sizes were measured using calipers on Days 4, 7, 14, and Day 22 post-inoculation. […]

[1] = Clinically observable adverse effects of cationic alkyl moieties after subcutaneous bolus in rats (Table 1); assay type: in vivo, rat; settings: male, Sprague-Dawley, rat, in vivo, sc, tested at 3.0, 5.0 or 10 μmol/kg, lethargy is considered maximum tolerated bolus dose, read-out: Lethargy* in n = 3
Outline: (§1)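 Rats given subcutaneous bolus of cationic alkyl modifier in sterile water pH 4.5-5, starting 5.0 μmol/kg, raised to 10 μmol/kg if no swelling or lowered to 3.0 μmol/kg if swelling, 1-week wash-out. Monitored for lethargy, ataxia, swelling, discoloration closely for 4 h, then hourly.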

Sprague Dawley rats = experiment: as above; assay type: in vivo, rat; settings: tested at 3.0, 5.0 or 10 μmol/kg
Outline: as §1

[2] = target: T1, Recombinant human NPRB extracellular domain - human IgG1 Fc fusion (NPRB-Fc) (human, UniProt P20594 23-458); experiment: Fluorescence polarization, 5 nM CNP-F* with 50 nM human NPRB
T1 construct: extracellular domain; Used at 50 nM in the fluorescence polarization assay; R1-T433 counts on the mature protein; also called natriuretic peptide receptor B; not shown: Human IgG1 heavy chain, amino acids E216-G446 (IMGT.org, EU numbering), Accn; P01857.2
T1 sequence (looked up): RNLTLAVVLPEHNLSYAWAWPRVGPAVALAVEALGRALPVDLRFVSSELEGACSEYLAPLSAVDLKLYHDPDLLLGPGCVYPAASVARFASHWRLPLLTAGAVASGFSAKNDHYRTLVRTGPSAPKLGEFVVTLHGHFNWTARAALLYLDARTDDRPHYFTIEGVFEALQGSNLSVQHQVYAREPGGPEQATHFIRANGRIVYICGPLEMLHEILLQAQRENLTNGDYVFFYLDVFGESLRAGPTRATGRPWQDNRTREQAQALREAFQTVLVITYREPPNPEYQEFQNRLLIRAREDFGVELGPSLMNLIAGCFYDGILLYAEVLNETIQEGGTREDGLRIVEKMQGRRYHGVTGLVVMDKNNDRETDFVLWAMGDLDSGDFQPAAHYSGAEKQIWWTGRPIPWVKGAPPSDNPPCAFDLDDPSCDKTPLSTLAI
Procedure: (§2) In the presence of [SEQ ID.
(§3) Next, 1-L volume of SEQ ID. […] The plate was incubated at room temperature for 10 min. Fluorescence polarization was then measured on Flexstation 3 (excitation wavelength: 480 nm; emission wavelength: 525 nm and cutoff at 515 nm).

[3] = target: T2, Recombinant human NPRA extracellular domain - human IgG1 Fc fusion (NPRA-Fc) (human, UniProt P16066 33-473); experiment: Fluorescence polarization, 5 nM CNP-F* probe with recombinant human NPRA-Fc
T2 construct: extracellular domain; Expressed in Expi293 cells, Protein A purified; N1-L439 and C232 count on the mature NPRA, not on the precursor; also called Natriuretic Peptide Receptor A; not shown: Human IgG1 heavy chain, amino acids E216-G446 (IMGT.org, EU numbering), Accn; P01857.2
T2 sequence (looked up): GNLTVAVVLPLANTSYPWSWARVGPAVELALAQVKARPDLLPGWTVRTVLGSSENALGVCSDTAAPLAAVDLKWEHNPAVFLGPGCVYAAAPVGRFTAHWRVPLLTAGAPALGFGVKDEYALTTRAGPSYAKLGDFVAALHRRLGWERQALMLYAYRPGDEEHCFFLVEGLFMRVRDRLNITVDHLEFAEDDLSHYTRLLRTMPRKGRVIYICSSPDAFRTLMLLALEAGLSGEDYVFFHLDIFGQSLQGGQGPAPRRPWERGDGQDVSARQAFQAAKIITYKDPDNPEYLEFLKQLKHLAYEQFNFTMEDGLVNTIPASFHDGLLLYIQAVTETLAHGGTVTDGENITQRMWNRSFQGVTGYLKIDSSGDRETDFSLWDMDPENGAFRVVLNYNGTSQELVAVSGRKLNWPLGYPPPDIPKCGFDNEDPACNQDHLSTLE

[4] = target: T1, Recombinant human NPRB extracellular …; experiment: Fluorescence polarization competition: 150 nM SEQ ID NO: 31 against 5 nM CNP-F* on 50 nM human NPRB
Procedure: as §2, §3

In the case of CCCCCCCCCCCCCCCC(=O)NCCOCCOCC(=O)NCCOCCOCC(=O)NCCOCCOCC(=O)N[C@H](CCCCN)C(=O)N[C@H](CCCCN)C(=O)O [SEQ ID NO: 3, CH3(CH2)14(C═O)-Aeea-Aeea-Aeea-kk], the “Anti-tumor effect vs anti-tigit Ab monotherapy” value (MC38 colon cancer cells) is reported as “outperformed the anti-tumor effect of anti-tigit Ab as a monotherapy”, the MTD [1] is reported as no less than 5 µmol/kg and the “Ataxia** in n = 3” value (Sprague Dawley rats; ataxia is bolus dose limiting toxicity) is reported as no less than 5 µmol/kg. The “Swelling and/or Discoloration in n = 3” value (Sprague Dawley rats; dose at which sign was seen) was no less than 3 µmol/kg.

B1: CNP-F* probe (C-type natriuretic peptide bound to 5(6)-Carboxyfluorescein) (peptide)
peptide: {5(6)‑carboxyfluorescein}-GLSKGCFGLKLDRIGSMSGLGC
modifications: disulfide 6-22 (inferred)
notes: Made by solid phase synthesis; used at 5 nM in the fluorescence polarization assay; also called CNP probe; CNP based probe
B1: binds [2]; no binding [3].

B2: SEQ ID NO: 31, cationic alkyl modified CNP derivative CH3(CH2)14(C=O)-Aeea-Aeea-Aeea-Dap-Dap-GLSKGCFGLKLDRIGSQSGLGC (disulfide bond) (peptide)
peptide: Palmitoyl-[AEEA][AEEA][AEEA][Dap][Dap]GLSKGCFGLKLDRIGSQSGLGC
modifications: disulfide 11-27
notes: The entry holds non-natural residues (Aeea, Dap) before the 22 residues of the CNP part
B2: binds [4].
